Assay results published in patent US20260256909A1, “COMBINATION OF A BTN3A ACTIVATING ANTIBODY, A BCL2 INHIBITOR AND HYPOMETHYLATING AGENT FOR USE IN TREATING CANCER” (Imcheck Therapeutics, priority 2022, published 2026).

Key:
Type in all cases: cell-based, human
Vγ9Vδ2 T cells [1] = assay: Survival of Vγ9Vδ2 T cells in HD-PBMC (Caspase3/7 and dead cell marker, flow cytometry); settings: for reduced survival of Vγ9Vδ2 T cells compared to no Venetoclax condition: simultaneous treatment with ICT01 1 μg/mL
Method: The effect of ICT01 on the survival of Vγ9Vδ2 T cells upon treatment with Bcl-2 family member inhibitors was assessed in Peripheral Blood Mononuclear Cells from Healthy Donors (HD-PBMC) using the apoptotic marker Caspase3/7 and a dead cell marker in flow cytometry analysis.
(§1) Peripheral Blood Mononuclear Cells (PBMC) were isolated by Ficoll density gradient centrifugation of peripheral blood (EDTA-buffy coats) from healthy donors (HD, n=4-6), cultured in PBMC medium (RPMI 1640 Medium supplemented with 10% Fetal Bovine Serum (FBS), 1% Penicillin/Streptomycin and 1 mM Sodium Pyruvate) and treated with ICT01 or its isotype control (hIgG1S) used at 1 μg/mL in the presence or absence of increasing concentrations of Venetoclax (0-0.1 μM), 5-Azacytidine (0-0.4 μM) or the combination, or ABT-737 (0-1.875 μM), Navitoclax (0-1.875 μM) or MIK665 (0-1.875 μM). Cells were harvested on day 2, centrifuged at 1800 rpm for 5 minutes and then incubated 10 minutes at room temperature (RT) with 25 μl of FcR blocking reagent (Miltenyi Biotec) before adding 25 μL of the following antibody mix prepared in PBS+2% FBS+2 mM EDTA (FACS buffer): anti-CD4-BUV395, CD56-BV421, Vd2-PE, CD3-PE-CF594 and CD8-A700 antibodies for the identification of immune subsets, anti-CD25-BV650 and CD69-APC antibodies were added to monitor activation status of Vγ9Vδ2 T cells, and a viability marker (LIVE/DEAD™ Fixable Dead Cell Stain) was added to distinguish live from dead cells. Cells were incubated 20 minutes at room temperature (RT) and washed 2 times with FACS buffer. A Caspase3/7 Green detection reagent (ThermoFisher) was added to determine apoptosis and cells were incubated for 30 minutes at RT before flow cytometry analysis.
In a similar experiment, freshly isolated PBMC were stimulated with ICT01 or its isotype control hIgG1S for 1 day prior to a 2 day-treatment with Venetoclax (FIG. 3a). The number of live Vγ9Vδ2 T cells was assessed by flow cytometry at the end of the incubation time.

Vγ9Vδ2 T cells [2] = assay: Phenotypic activation of Vγ9Vδ2 T cells in HD-PBMC (CD69/CD25 expression, flow cytometry); settings: for activation of Vγ9Vδ2 T cells by ICT01 (CD25 expression): HD-PBMC treated one day with Venetoclax (0-0.1 μM), 5-Azacytidine (0-0.4 μM) prior to ICT01 for two days; for effect on the ICT01-induced upregulation of CD25 by Vγ9Vδ2 T cells: day 4, together with ICT01 1 μg/mL, Venetoclax 0-0.1 μM, 5-Azacytidine 0-0.4 μM
Method: as §1
ICT01-induced phenotypic activation of Vγ9Vδ2 T cells is indicated by the upregulation of CD25. Therefore, human PBMC from healthy donors (HD, n=6) were cultured with ICT01 or its isotype control (hIgG1S) used at 1 μg/mL in the presence or absence of increasing concentrations of Venetoclax (0-0.1 μM), 5-Azacytidine (0-0.4 μM) or the combination in PBMC medium (RPMI 1640 Medium supplemented with 10% FBS, 1% Penicillin/Streptomycin and 1 mM Sodium Pyruvate). Cells were harvested on day 4, centrifuged at 1800 rpm for 5 minutes and then incubated 10 minutes at room temperature (RT) with 25 μl of FcR blocking reagent (Miltenyi Biotec) before adding 25 μL of the following antibody mix prepared in PBS+2% FBS+2 mM EDTA (FACS buffer): anti-CD4-BV650, CD56-FITC, Vd2-PE, CD3-PE-CF594 and CD8-A700 antibodies for the identification of immune subsets, an anti-CD25-BV650 antibody was added to monitor activation status, and a viability marker (LIVE/DEAD™ Fixable Dead Cell Stain) was added to distinguish live from dead cells. Cells were incubated 20 minutes at 4° C. and washed 2 times in FACS buffer before flow cytometry analysis.
In a similar experiment, freshly isolated healthy donor-derived PBMC were treated with increasing concentrations of Venetoclax (0-0.1 μM), 5-Azacytidine (0-0.4 μM) or the combination for one day prior to stimulation with ICT01 or its isotype control hIgG1S for two days. Again, activation of Vγ9Vδ2T cells by ICT01 was unaffected by Venetoclax and 5-Azacytidine treatment, as indicated by the similar induction of CD25 expression in all conditions tested (Figure b).

Vγ9Vδ2 T cells [3] = assay: ICT01-induced IFNγ production by Vγ9Vδ2 T cells in HD-PBMC (intracellular staining); settings: for effect on ICT01-induced IFNγ production by Vγ9Vδ2 T cells: single agent, independent of IL2
Method: To evaluate the effect of Venetoclax and 5-Azacytidine on cytokine production, freshly isolated human PBMC from healthy donors (HD, n=6) were cultured in PBMC medium (RPMI 1640 Medium supplemented with 10% Fetal Bovine Serum (FBS), 1% Penicillin/Streptomycin and 1 mM Sodium Pyruvate) and treated with ICT01 or its isotype control (hIgG1S) used at 1 μg/mL in the presence or absence of increasing concentrations of Venetoclax (0-0.1 μM), 5-Azacytidine (0-0.4 μM) or the combination. Half of the cells were additionally treated with 50 IU/mL IL2. Golgi Stop was added after 6-8 hours of co-culture and cells were harvested 16 h later, centrifuged at 1800 rpm for 5 minutes and then incubated 10 minutes at room temperature (RT) with 25 μl of FcR blocking reagent (Miltenyi Biotec) before adding 25 μL of the following antibody mix prepared in PBS+2% FBS+2 mM EDTA (FACS buffer): anti-CD4-BV650, Vγ9-FITC, CD3-PE-CF594, CD56-PE-Vio770 and CD8-AF700 antibodies for the identification of immune subsets, and a viability marker (LIVE/DEAD™ Fixable Dead Cell Stain) was added to distinguish live from dead cells. After 20 minutes, 100 μL of CytoFix solution (BD Bioscience) was added, and cells were incubated for 20 minutes at 4° C. 100 μL of Perm/Wash (BD Bioscience) were added, cells centrifuged and washed once in 200 μL Perm/Wash. After washing, cells were stained with anti-IFNγ-APC antibody for 30 minutes at 4° C., washed twice with Perm/Wash, and analyzed by flow cytometry.

KG1a AML cell line = assay: Sensitivity of KG1a AML cell line (Cell Titer Glo luminescence); settings: for EC50: Homo sapiens, KG-1a, 48 h, 2 days treatment, luminescence, read-out: EC50 on KG1a AML cells; for mean survival of KG1a AML cells: Venetoclax at 5 μM and/or 5-Azacytidine at 10 μM, 2 days
Method: First, to assess the sensitivity of KG1a AML cell line to Venetoclax and 5-Azacytidine treatment in vitro, cells were treated with increasing concentrations of Venetoclax (0-5 μM), 5-Azacytidine (0-10 μM) or the combination for 2 days in cell culture medium (alpha-MEM+Glutamax supplemented with 20% Fetal Bovine Serum (FBS) and 1 mM Sodium Pyruvate). On day 2, cells were centrifuged at 1800 rpm for 5 minutes and the supernatant discarded. Cells were lysed with Cell Titer Glo reagent (Promega), and ATP amount was monitored as a measure of living cells using luminescence.

[4] = 0.01 μM Venetoclax, HD-PBMC, 48 h
[5] = 0.1 μM Venetoclax, HD-PBMC, 48 h

Nc1ncn([C@@H]2O[C@H](CO)[C@@H](O)[C@H]2O)c(=O)n1 [5-Azacytidine, 4-amino-1-[(2R,3R,4S,5R)3,4-dihydroxy-5-(hydroxymethyl)oxolan-2-yl]-1,3,5-triazin-2-one]
effect on the survival of Vγ9Vδ2 T cells (Vγ9Vδ2 T cells [1]; HD-PBMC, 48 h, 5-Azacytidine 0-0.4 μM): no effect | activation of Vγ9Vδ2 T cells by ICT01 (CD25 expression) (Vγ9Vδ2 T cells [2]): unaffected | effect on the ICT01-induced upregulation of CD25 by Vγ9Vδ2 T cells (Vγ9Vδ2 T cells [2]; HD-PBMC): no effect | effect on ICT01-induced IFNγ production by Vγ9Vδ2 T cells (Vγ9Vδ2 T cells [3]): no effect | EC50 (KG1a AML cell line): 4.72 µM | mean survival of KG1a AML cells (KG1a AML cell line): 47.2%

CC1(C)CCC(CN2CCN(c3ccc(C(=O)NS(=O)(=O)c4ccc(NCC5CCOCC5)c([N+](=O)[O-])c4)c(Oc4cnc5[nH]ccc5c4)c3)CC2)=C(c2ccc(Cl)cc2)C1 [Venetoclax, 4-[4-[[2-(4-chlorophenyl)-4,4-dimethylcyclohexen-1-yl]methyl]piperazin-1-yl]-N-[3-nitro-4-(oxan-4-ylmethylamino)phenyl]sulfonyl-2-(1H-pyrrolo[2,3-b]pyridin-5-yloxy)benzamide]
reduction of live cells (Vγ9Vδ2 T cells) compared to no Venetoclax condition (Vγ9Vδ2 T cells [1]; [4]): ~ 29% | reduced survival of Vγ9Vδ2 T cells compared to no Venetoclax condition (Vγ9Vδ2 T cells [1]; [4]): ~ 11% | reduction of live cells (Vγ9Vδ2 T cells) compared to no Venetoclax condition (Vγ9Vδ2 T cells [1]; [5]): ~ 49% | reduced survival of Vγ9Vδ2 T cells compared to no Venetoclax condition (Vγ9Vδ2 T cells [1]; [5]): ~ 30% | activation of Vγ9Vδ2 T cells by ICT01 (CD25 expression) (Vγ9Vδ2 T cells [2]): unaffected | effect on the ICT01-induced upregulation of CD25 by Vγ9Vδ2 T cells (Vγ9Vδ2 T cells [2]; HD-PBMC): no effect | effect on ICT01-induced IFNγ production by Vγ9Vδ2 T cells (Vγ9Vδ2 T cells [3]): no effect | EC50 (KG1a AML cell line): 1.82 µM | mean survival of KG1a AML cells (KG1a AML cell line): 20.2%

ICT01: humanized BTN3A activating antibody of mAb 7.2, heavy chain SEQ ID NO: 4, light chain SEQ ID NO: 6, silent IgG1 L247F/L248E/P350S
Venetoclax induced cell death of Vγ9Vδ2 T cells (Vγ9Vδ2 T cells [1]; PBMC stimulated with ICT01 for 1 day prior to a 2 day-treatment with Venetoclax, vs hIgG1S): significantly reduced | activation of Vγ9Vδ2 T cells: expression of CD69 and CD25 (Vγ9Vδ2 T cells [2]; HD-PBMC, 2 days, ICT01 1 μg/mL, compared to hIgG1S): increased expression of CD69 and CD25 | IFNγ production by Vγ9Vδ2 T cells (Vγ9Vδ2 T cells [3]; HD-PBMC activated with ICT01 (1 μg/mL) in presence of IL2 (50 IU/mL)): 89.1% | IFNγ production by Vγ9Vδ2 T cells (Vγ9Vδ2 T cells [3]; HD-PBMC activated with ICT01 alone (1 μg/mL), no IL2): 30.4%
